According to patent US12264134B2 (Merck Sharp & Dohme LLC, priority 2018, dated 2025):

How the values were obtained:
IDO1 [1] = biological target: T1, IDO1 (Homo sapiens, UniProt P14902); test: IDO1 Cellular Assay in HeLa Cells Stimulated with IFNγ; type: cell-based; details: read-out: HeLa Cell Potency, IC50
IDO1 [2] = biological target: T1, IDO1; test: IDO1 Human Whole blood Assay; type: cell-based; parameters: Human whole blood was drawn in sodium heparin coated tubes from healthy internal donors; from tissue; host or cells: human whole blood from healthy donors, stimulated with LPS and IFNγ; details: LPS and IFNγ stimulated, 18 h, read-out: Human Whole Blood Potency, IC50
Summary of the method: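 Heparinized healthy-donor human whole blood was preincubated 15 min with compound, then stimulated with LPS and IFNγ (100 ng/mL final) for 18 h at 37 °C. Plasma kynurenine was quantified by LC/MS/MS against a D6-kynurenine internal standard, and IC50s came from 4-parameter sigmoidal fits.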

T1 sequence (P14902 whole entry): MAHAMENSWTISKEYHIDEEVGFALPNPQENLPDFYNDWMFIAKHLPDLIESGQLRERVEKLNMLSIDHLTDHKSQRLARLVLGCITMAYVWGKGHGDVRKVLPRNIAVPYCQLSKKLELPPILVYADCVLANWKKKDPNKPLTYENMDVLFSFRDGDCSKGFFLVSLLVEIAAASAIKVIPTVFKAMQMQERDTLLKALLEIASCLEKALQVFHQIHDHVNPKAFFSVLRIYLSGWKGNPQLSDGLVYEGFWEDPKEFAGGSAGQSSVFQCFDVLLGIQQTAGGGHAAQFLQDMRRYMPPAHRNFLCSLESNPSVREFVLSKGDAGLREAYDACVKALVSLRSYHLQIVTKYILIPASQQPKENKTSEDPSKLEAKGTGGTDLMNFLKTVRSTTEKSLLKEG

Compound | IC50 (IDO1 [1]) | IC50 (IDO1 [2])
CC(=O)NC1CCN(C(=O)c2nn(CC(=O)N3CCN(c4cccc(C)c4C)CC3)c3c2[C@@H]2C[C@@H]2C3)CC1 [Example 229, N-{1-[(3bR,4aR)-1-{2-[4-(2,3-dimethylphenyl)piperazin-1-yl]-2-oxoethyl}-3b,4,4a,5-tetrahydro-1H-cyclopropa[3,4]cyclopenta[1,2-c]pyrazole-3-carbonyl]piperidin-4-yl}acetamide] | 1.06 nM | 224 nM
Cc1cccc(N2CCN(C(=O)Cn3nc(C(=O)N4CCC(O)(CF)CC4)c4c3CCCC4)CC2)c1C [Example 477, 1-(4-(2,3-dimethylphenyl)piperazin-1-yl)-2-(3-(4-(fluoromethyl)-4-hydroxypiperidine-1-carbonyl)-4,5,6,7-tetrahydro-1H-indazol-1-yl)ethanone] | 5.53 nM | 61 nM
Cc1cccc(N2CCN(C(=O)Cn3nc(C(=O)N4CCC5(CO)CC4C5)c4c3C[C@H]3C[C@@H]43)C(C)(C)C2)c1C [Example 333, 1-[4-(2,3-dimethylphenyl)-2,2-dimethylpiperazin-1-yl]-2-{(3bR,4aR)-3-[5-(hydroxymethyl)-2-azabicyclo[3.1.1]heptane-2-carbonyl]-3b,4,4a,5-tetrahydro-1H-cyclopropa[3,4]cyclopenta[1,2-c]pyrazol-1-yl}ethan-1-one] | 8.73 nM | > 10000 nM
Cc1cccc(N2CCN(C(=O)Cn3nc(C(=O)N4CCC(O)C(F)C4)c4c3CCC4)C3(CC3)C2)c1C (single isomer, unassigned) [Example 394, 1-(7-(2,3-dimethylphenyl)-4,7-diazaspiro[2.5]octan-4-yl)-2-(3-(3-fluoro-4-hydroxypiperidine-1-carbonyl)-5,6-dihydrocyclopenta[c]pyrazol-1(4H)-yl)ethanone] | 7.2 nM | 904 nM
Cc1c(F)ccc(N2CCN(C(=O)Cn3nc(C(=O)N4CCC(O)(CO)CC4)c4c3C[C@H]3C[C@@H]43)C3(CC3)C2)c1C [Example 323, 1-[7-(4-fluoro-2,3-dimethylphenyl)-4,7-diazaspiro[2.5]octan-4-yl]-2-{(3bR,4aR)-3-[4-hydroxy-4-(hydroxymethyl)piperidine-1-carbonyl]-3b,4,4a,5-tetrahydro-1H-cyclopropa[3,4]cyclopenta[1,2-c]pyrazol-1-yl}ethan-1-one] | 0.69 nM | 1800 nM
CC(=O)NC1CCN(C(=O)c2nn(CC(=O)N3CCN(c4cccc(C)c4C)CC3)c3c2CCCC3)CC1 [Example 471, N-(1-(1-(2-(4-(2,3-dimethylphenyl)piperazin-1-yl)-2-oxoethyl)-4,5,6,7-tetrahydro-1H-indazole-3-carbonyl)piperidin-4-yl) acetamide] | 2.63 nM | 65 nM
Cc1cccc(N2CCN(C(=O)Cn3nc(C(=O)N4CC[C@H](O)[C@H](F)C4)c4c3C[C@H]3C[C@@H]43)C(C)(C)C2)c1C [Example 331, 1-[4-(2,3-dimethylphenyl)-2,2-dimethylpiperazin-1-yl]-2-{(3bR,4aR)-3-[(3R,4S)-3-fluoro-4-hydroxypiperidine-1-carbonyl]-3b,4,4a,5-tetrahydro-1H-cyclopropa[3,4]cyclopenta[1,2-c]pyrazol-1-yl}ethan-1-one] | 84.5 nM | 9120 nM
Cc1cccc(N2CCN(C(=O)Cn3nc(C(=O)N4CCC(NC(=O)CCO)CC4)c4c3CCCC4)CC2)c1C [Example 478, N-(1-(1-(2-(4-(2,3-dimethylphenyl)piperazin-1-yl)-2-oxoethyl)-4,5,6,7-tetrahydro-1H-indazol-3-carbonyl)piperidin-4-yl)-3-hydroxypropanamide] | 7.15 nM | 137 nM
Cc1cccc(N2CCN(C(=O)Cn3nc(C(=O)N4CCC(O)C(F)C4)c4c3CCC4)C3(CC3)C2)c1C (single isomer, unassigned) [Example 396, 1-(7-(2,3-dimethylphenyl)-4,7-diazaspiro[2.5]octan-4-yl)-2-(3-(3-fluoro-4-hydroxypiperidine-1-carbonyl)-5,6-dihydrocyclopenta[c]pyrazol-1(4H)-yl)ethanone] | 4.08 nM | 625 nM
Cc1cccc(N2CCN(C(=O)Cn3nc(C(=O)N4CCN(C(=O)CO)CC4)c4c3CCCC4)CC2)c1C [Example 480, 1-(4-(2,3-dimethylphenyl)piperazin-1-yl)-2-(3-(4-(2-hydroxyacetyl)piperazin-1-carbonyl)-4,5,6,7-tetrahydro-1H-indazol-1-yl)ethanone] | 8.74 nM | 90 nM
Cc1cccc(N2CCN(C(=O)Cn3nc(C(=O)N4C[C@@H](C)O[C@@H](C)C4)c4c3C[C@H]3C[C@@H]43)CC2)c1C [Example 283, 2-{(3bR,4aR)-3-[(2R,6S)-2,6-dimethylmorpholine-4-carbonyl]-3b,4,4a,5-tetrahydro-1H-cyclopropa[3,4]cyclopenta[1,2-c]pyrazol-1-yl}-1-[4-(2,3-dimethylphenyl)piperazine-1-yl]ethan-1-one] | 1.13 nM | 163 nM
Cc1cccc(N2CCN(C(=O)Cn3nc(C(=O)N4CCC(n5ncnn5)CC4)c4c3CCC4)CC2)c1C [Example 129, 1-[4-(2,3-dimethylphenyl)piperazin-1-yl]-2-{3-[4-(2H-tetrazol-2-yl)piperidine-1-carbonyl]-2,6-dihydrocyclopenta[c]pyrazol-1(4H)-yl}ethan-1-one] | 3.08 nM | 311 nM
Cc1cccc(N2CCN(C(=O)Cn3nc(C(=O)N4CCN5CCOC[C@@H]5C4)c4c3CCC4)CC2)c1C [Example 174, 1-[4-(2,3-dimethylphenyl)piperazin-1-yl]-2-{3-[(9aS)-hexahydropyrazino[2,1-c][1,4]oxazine-8(1H)-carbonyl]-5,6-dihydrocyclopenta[c]pyrazol-1(4H)-yl}ethan-1-one] | 3.75 nM | 480 nM
Cc1cccc(N2CCN(C(=O)Cn3nc(C(=O)N4CCC(O)C(F)C4)c4c3CCC4)C3(CC3)C2)c1C (single isomer, unassigned) [Example 395, 1-(7-(2,3-dimethylphenyl)-4,7-diazaspiro[2.5]octan-4-yl)-2-(3-(3-fluoro-4-hydroxypiperidine-1-carbonyl)-5,6-dihydrocyclopenta[c]pyrazol-1(4H)-yl)ethanone] | 6.86 nM | 4160 nM
COC1CCN(C(=O)c2nn(CC(=O)N3CCN(c4cccc(C)c4C)CC3)c3c2CCC3)CC1 [Example 126, 1-[4-(2,3-dimethylphenyl)piperazin-1-yl]-2-[3-(4-methoxypiperidine-1-carbonyl)-5,6-dihydrocyclopenta[c]pyrazol-1(4H)-yl]ethan-1-one] | 2.61 nM | 300 nM
Cc1cccc(N2CCN(C(=O)Cn3nc(C(=O)N4CCC(c5cn[nH]c5)CC4)c4c3CCC4)CC2)c1C [Example 142, 1-[4-(2,3-dimethylphenyl)piperazin-1-yl]-2-{3-[4-(1H-pyrazol-4-yl)piperidine-1-carbonyl]-5,6-dihydrocyclopenta[c]pyrazol-1(4H)-yl}ethan-1-one] | 1.29 nM | 48 nM
Cc1cccc(N2CCN(C(=O)Cn3nc(C(=O)N4C[C@@H](C)N[C@@H](C)C4)c4c3C[C@H]3C[C@@H]43)CC2)c1C [Example 234, 1-[4-(2,3-dimethylphenyl)piperazin-1-yl]-2-{(3bR,4aR)-3-[(3R,5S)-3,5-dimethylpiperazine-1-carbonyl]-3b,4,4a,5-tetrahydro-1H-cyclopropa[3,4]cyclopenta[1,2-c]pyrazol-1-yl}ethan-1-one] | 3.61 nM | 273 nM
Cc1cccc(N2CCN(C(=O)Cn3nc(C(=O)N4CC[C@H](O)[C@@H](F)C4)c4c3CCCC4)CC2)c1C [Example 468, 1-(4-(2,3-dimethylphenyl)piperazin-1-yl)-2-(3-((3S,4S)-3-fluoro-4-hydroxypiperidine-1-carbonyl)-4,5,6,7-tetrahydro-1H-indazol-1-yl)ethanone] | 1.9 nM | 88 nM
Cc1cccc(N2CCN(C(=O)Cn3nc(C(=O)N4CC[C@@H](O)[C@H](C)C4)c4c3CCC4)CC2)c1C [Example 108, 1-[4-(2,3-dimethylphenyl)piperazin-1-yl]-2-{3-[(3R,4R)-4-hydroxy-3-methylpiperidin-1-carbonyl]-5,6-dihydrocyclopenta[c]pyrazol-1(4H)-yl}ethan-1-one] | 1.79 nM | 77 nM
Cc1cccc(N2CCN(C(=O)Cn3nc(C(=O)N4CCCC4)c4c3CCC(F)C4)CC2)c1C (single isomer, unassigned) [Example 7, 1-(4-(2,3-dimethylphenyl)piperazin-1-yl)-2-(5-fluoro-3-(pyrrolidine-1-carbonyl)-4,5,6,7-tetrahydro-1H-indazol-1-yl)ethanone] | 11.1 nM | 934 nM
CC(=O)NC1CCN(C(=O)c2nn(CC(=O)N3CCN(c4cccc(C)c4C)CC3)c3c2CCC3)CC1 [Example 128, N-[1-(1-{2-[4-(2,3-dimethylphenyl)piperazin-1-yl]-2-oxoethyl}-1,4,5,6-tetrahydrocyclopenta[c]pyrazole-3-carbonyl)piperidin-4-yl]acetamide] | 4.07 nM | 192 nM
Cc1cccc(N2CCN(C(=O)Cn3nc(C(=O)N4CC[C@H](O)C(F)(F)C4)c4c3CCC4)CC2)c1C (single isomer, unassigned) [Example 201, 2-[3-[(4S or 4R)-3,3-difluoro-4-hydroxy-piperidine-1-carbonyl]-5,6-dihydro-4H-cyclopenta[c]pyrazol-1-yl]-1-[4-(2,3-dimethylphenyl)piperazin-1-yl]ethanone] | 3.67 nM | 1800 nM
Cc1cccc(N2CCN(C(=O)Cn3nc(C(=O)N4CCCC4)c4c3CCCCC4)CC2)c1C [Example 5, 1-[4-(2,3-dimethylphenyl)piperazin-4-ium-1-yl]-2-[3-(pyrrolidine-1-carbonyl)-5,6,7,8-tetrahydro-4H-cyclohepta[c]pyrazol-1-yl]ethanone] | 6.83 nM | 414 nM
